Reference: patent US7625902B2, “Imidazolidinone derivatives” (Hoffmann-La Roche Inc., priority 2007, dated 2009)

Key:
[1] = target: T1, human LXR alpha ligand binding domain (LXRα-LBD) (Homo sapiens, UniProt Q13133); experiment: Radioligand binding assay (SPA), LXR alpha; settings: LXRα-LBD on SPA beads, read-out: LXRalpha Binding IC50
T1 construct: human LXR alpha (aa 164 to 447); unspecified tag ('tagged versions'); made in house; host or cells: E. coli BL21 (pLysS)
T1 sequence (Q13133 164-447): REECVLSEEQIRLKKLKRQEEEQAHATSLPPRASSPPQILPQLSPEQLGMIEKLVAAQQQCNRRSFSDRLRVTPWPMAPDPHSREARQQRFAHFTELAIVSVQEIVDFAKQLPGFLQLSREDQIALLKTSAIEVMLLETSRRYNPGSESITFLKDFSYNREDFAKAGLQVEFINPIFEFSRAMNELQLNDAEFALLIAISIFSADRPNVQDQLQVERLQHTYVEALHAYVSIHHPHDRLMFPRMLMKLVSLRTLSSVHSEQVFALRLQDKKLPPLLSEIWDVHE
Procedure: (§1) The following tests were carried out in order to determine the activity of the compounds of the present invention. Background information on the performed assays can be found in: Nichols J S et al. “Development of a scintillation proximity assay for peroxisome proliferator-activated receptor gamma ligand binding domain”, Anal Biochem. 1998, 257: 112-119.
(§2) Mammalian expression vectors were constructed to express full-length human LXR alpha and LXR beta. Bacterial expression vectors were constructed to produce tagged versions of the ligand binding domains (LBD) of human LXR alpha (aa 164 to 447) and human LXR beta (aa 155 to 460). To accomplish this, the portions of the sequences encoding the LBDs were amplified from the full-length clones by PCR and then subcloned into the plasmid vectors. Final clones were verified by DNA sequence analysis (Willy et al., Genes Dev. 1995, 9:1033-45; Song et al., Proc Natl Acad Sci USA.1994, 91:10809-13).
(§3) Induction, expression, and purification of LBD proteins were performed in E. coli strain BL21 (pLysS) cells by standard methods (Ref: Current Protocols in Molecular Biology, Wiley Press, edited by Ausubel et al).
(§4) Radioligand Binding Assay
(§5) LXR alpha and LXR beta receptor binding were assayed in buffer consisting of 50 mM HEPES, pH 7.4, 10 mM NaCl, 5 mM MgCl2. For each 96-well reaction, 500 ng of LXRα-LBD or 700 ng of LXR beta-LBD proteins were bound to 80 μg or 40 μg SPA beads respectively, in a final volume of 50 μl by shaking. The resulting slurry was incubated for 1 h at RT and centrifuged for 2 min at 1300×g. The supernatant containing unbound protein was removed, and the semi-dry pellet containing the receptor-coated beads was re-suspended in 50 μl of buffer. […] All binding assays were performed in 96-well plates and the amount of bound ligand was measured on a Packard TopCount using OptiPlates (Packard). Dose response curves were measured within a range of concentration from 10^−10 M to 10^−4 M.

[2] = target: T2, human LXR beta ligand binding domain (LXR beta-LBD) (Homo sapiens, UniProt P55055); experiment: Radioligand binding assay (SPA), LXR beta; settings: LXR beta-LBD on SPA beads, read-out: LXRbeta Binding IC50
T2 construct: human LXR beta (aa 155 to 460); unspecified tag ('tagged versions'); made in house; host or cells: E. coli BL21 (pLysS)
T2 sequence (P55055 155-460): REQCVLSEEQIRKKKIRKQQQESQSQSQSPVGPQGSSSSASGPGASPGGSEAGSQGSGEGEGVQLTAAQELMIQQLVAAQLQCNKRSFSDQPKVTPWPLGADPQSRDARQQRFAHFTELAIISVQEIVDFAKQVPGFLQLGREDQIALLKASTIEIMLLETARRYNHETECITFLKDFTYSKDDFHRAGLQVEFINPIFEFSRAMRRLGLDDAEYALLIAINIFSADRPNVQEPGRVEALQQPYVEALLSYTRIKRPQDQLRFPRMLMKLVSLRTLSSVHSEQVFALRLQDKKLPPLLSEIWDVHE
Procedure: as §1, §2, §3, §4, §5

IC50 [1]	IC50 [2]	Compound
5.5 µM	0.48 µM	O=C(C1CN(S(=O)(=O)c2ccccc2)C(=O)N1C1CCCCC1)N1CCN(c2ncccc2C(F)(F)F)CC1 (racemic) [Example 39, (RS)-1-Benzenesulfonyl-3-cyclohexyl-4-[4-(3-trifluoromethyl-pyridin-2-yl)-piperazine-1-carbonyl]-imidazolidin-2-one]
2.5 µM	0.24 µM	O=C(C1CN(S(=O)(=O)c2ccccc2)C(=O)N1c1ccccc1Cl)N1CCN(c2ncccc2Cl)CC1 (racemic) [Example 63, (RS)-1-Benzenesulfonyl-3-(2-chloro-phenyl)-4-[4-(3-chloro-pyridin-2-yl)-piperazine-1-carbonyl]-imidazolidin-2-one]
0.26 µM	0.1 µM	Cc1ccc(C)c(N2CCN(C(=O)[C@@H]3CN(S(=O)(=O)c4ccccc4)C(=O)N3c3ccccc3Cl)CC2)c1 [Example 50, (S)-1-Benzenesulfonyl-3-(2-chloro-phenyl)-4-[4-(2,5-dimethyl-phenyl)-piperazine-1-carbonyl]-imidazolidin-2-one]
